US11649245B2, “Cyclopropylamine compound as LSD1 inhibitor and use thereof” (HELIOEAST PHARMACEUTICAL CO., LTD., priority 2018, dated 2023)
Structures can show the parent of a compound that is named as a salt.

How the values were obtained:
[1] = target: human LSD1 (Homo sapiens, UniProt O60341); experiment: In vitro enzyme activity screening against LSD1 (HRP/Amplex Red fluorescence coupling enzyme method); assay type: biochemical; settings: human LSD1, histone H3K4me peptide substrate 20 μM
Description: The purpose of this test was to detect the in vitro inhibitory activity of the compounds against LSD1. The enzyme used in this test was human LSD1, the standard substrate was histone H3K4me peptide (20 μM), the fluorescence coupling enzyme method was used to determine the activity of the compound by combining horseradish peroxidase (HRP) and fluorescent reagent Amplex Red to detect the H2O2 generation as a result of the reaction of LSD1. Compounds were tested in 10-dose IC50 mode with a 3-fold serial dilution starting at 10 μM. The enzyme and […] to start the reaction. Fluorescence detector: Envision, excitation wavelength: Ex/Em=530/590 […]

[2] = In vivo pharmacokinetics in CD-1 mice; settings: male, CD-1, mouse, plasma, male CD-1 mice; for half-life / clearance / Vd: iv, 1 mg/kg; for half-life: IV 1 mg/kg, read-out: Half-life T1/2 (IV) (converted); for clearance / Vd / Cmax: study doses 1 mg/kg intravenous, 2 mg/kg oral; for clearance: read-out: Clearance CL; for Vd: read-out: Volumes of distribution Vdss; for Cmax: route not given, read-out: Max concentration Cmax; for AUC(0-t) / bioavailability: po, 2 mg/kg; for AUC(0-t): PO 2 mg/kg, read-out: The area under the plasma concentration-time curve AUC0-last PO; for bioavailability: oral 2 mg/kg vs intravenous 1 mg/kg, read-out: Bioavailability F
Description: CD-1 mice (male, 7-9 weeks old, Shanghai Slac)
The rodent pharmacokinetic characteristics after intravenous injection and oral administration of the compounds were tested by standard protocols, in the experiment, the candidate compounds were formulated into clear solutions and administrated to mice via a single intravenous injection and oral administration. The vehicle for intravenous injection and oral administration was a mixed solution of 10% of dimethyl sulfoxide and 90% of 10% hydroxypropyl β cyclodextrin. This project used four male CD-1 mice, two mice were administered intravenously, with a dose of 1 mg/kg, and plasma samples were collected at 0 hour (before administration) and 0.0833, 0.25, 0.5, 1, 2, 4, 8, 24 hours after administration. The other two mice were orally administered by gavage, with a dose of 2 mg/kg, plasma samples were collected at 0 hour (before administration) and 0.25, 0.5, 1, 2, 4, 8, 24 hours after administration, whole blood samples were collected within 24 hours, which were centrifuged at 3000 g for 15 minutes, and the supernatants were separated to obtain plasma samples, 4 times volume of acetonitrile solutions containing internal standard were added to precipitate the protein, the mixtures were centrifuged to obtain the supernatants, the supernatants were added with water of equal volume and centrifuged again to take the supernatant for injection, and the blood drug concentration was quantitatively analyzed by the LC-MS/MS analysis method, and pharmacokinetic parameters were calculated, such as max concentration (Cmax), clearance (CL), half-life (T1/2), volumes of distribution (Vdss), the area under the plasma concentration-time curve (AUC0-last), bioavailability (F) etc.

[3] = tested on: MV-4-11 cells; experiment: Antiproliferation activity on MV-4-11 cells (CellTiter-Glo, 6 days); assay type: cell-based; settings: Homo sapiens, MV4-11, 144 h, incubated for 6 days
Description: Experimental purpose: to detect the antiproliferation activity of the compound to be tested on MV-4-11 cells.
(§1) Experimental materials: IMDM culture medium, fetal bovine serum, penicillin/streptomycin antibiotics purchased from Wisent. CellTiter-Glo (chemiluminescent cell viability assay reagent) reagents purchased from Promega. MV-4-11 cell line was purchased from Nanjing Cobioer Co., Ltd. Nivo Multi-Marker Analyzer (PerkinElmer).
Experimental method: MV-4-11 cells were planted in a white 96-well plate, 80 μL of cell suspension per well, which contained 6000 MV-4-11 cells. The cell plate was placed in a carbon dioxide incubator for overnight culture.
The compounds to be tested were diluted 5-fold with a pipet until the 8th concentration, i.e., diluted from 2 mM to 25.6 nM, double duplicate well experiment was set. 78 μL of the culture medium was added to an intermediate plate, and then 2 μL per well of the serially diluted compounds were transferred to the corresponding positions on the intermediate plate, after mixing, 20 μL per well was transferred to the cell plate. The cell plate was incubated in a carbon dioxide incubator for 6 days. Another cell plate was prepared and the signal value on the day of dosing was read as the maximum value (Max value in the equation below) to participate in the data analysis. 25 μL of the chemiluminescent cell viability assay reagent was added to each well of this cell plate, which was incubated at room temperature for 10 minutes to stabilize the luminescence signal. The multi-label analyzer was used for reading.
(§2) Data analysis: the equation (Sample-Min)/(Max-Min)*100% was used to convert the original data into the inhibition rate, the IC50 value can be obtained by curve fitting of four-parameters (“log(inhibitor) vs. response—Variable slope” mode in GraphPad Prism)).

[4] = tested on: HL60 cells; experiment: Antiproliferation activity on HL60 cells (CellTiter-Glo, 6 days); assay type: cell-based; settings: Homo sapiens, HL-60, 144 h, incubated for 6 days
Description: Experimental purpose: to detect the antiproliferation activity of the compound to be tested on HL60 cells.
as §1, with “RPMI-1640” for “IMDM”, “HL60” for “MV-4-11”, “line” for “line was”, “multi-label reader” for “Multi-Marker Analyzer”
Experimental method: HL60 cells were planted in a white 384-well plate, 40 μL of cell suspension per well, 600 HL60 cells were contained therein. The cell plate was placed in a carbon dioxide incubator for overnight culture. The compounds to be tested were diluted 5-fold with a pipet until the 10th concentration, i.e., diluted from 2 mM to 1.024 nM, double duplicate well experiment was set. 78 μL of the culture medium was added to an intermediate plate, and then 2 μL per well of the serially diluted compounds were transferred to the corresponding positions on the intermediate plate, after mixing, 10 μL per well was transferred to the cell plate. The cell plate was incubated in a carbon dioxide incubator for 6 days. Another cell plate was prepared and the signal value on the day of dosing was read as the maximum value (Max value in the equation below) to participate in the data analysis. 20 μL of chemiluminescent cell viability assay reagent was added to each well of this cell plate, which was incubated at room temperature for 10 minutes to stabilize the luminescence signal. The multi-label reader was used for reading.
as §2

[5] = tested on: NCI-H1417 cells; experiment: Antiproliferation activity on NCI-H1417 cells (CellTiter-Glo, 10 days); assay type: cell-based, human; settings: Homo sapiens, NCI-H1417, 240 h, incubated for 10 days
Description: Experimental purpose: to detect the antiproliferation activity of the compounds on NCI-H1417 cells.
Experimental materials: RPMI 1640 culture medium, fetal bovine serum, Promega CellTiter-Glo reagent. NCI-H1417 cell line purchased from ATCC. Envision multi-label reader (PerkinElmer).
Experimental method: the compounds were dissolved to 10 mM, then the compounds were diluted 5 times with DMSO in a compound plate, the compounds were diluted 3-fold with Bravo from a starting concentration of 2 mM to the 10th concentration, 250 nL of the solutions were transferred to the upper and lower duplicate wells on a blank 384 cell plate by Echo transfer plate, cell suspension of per well/1000 cells/50 μL was added to the transferred 250 nL DMSO/compound, the compounds were diluted 200-fold, i.e., the initial action concentration was 10 μM. The cell plate was placed in a carbon dioxide incubator and incubated for 10 days. 25 μL of Promega CellTiter-Glo reagent was added to each well on the cell plate and was shaken at room temperature for 10 minutes to stabilize the luminescence signal. Readings were performed by PerkinElmer Envision multi-label analyzer.
Data analysis: the equation (Max-Ratio)/(Max-Min)*100% was used to convert the original data into the inhibition rate, the value of IC50 can be obtained by curve fitting of four-parameters (the 205 mode in XLFITS, iDBS).

IC50 [1] [nM] | Compound | further results
1690 | O=C(O)c1ccc(NC(=O)N2CCC3(CC2)CC(N[C@@H]2C[C@H]2c2ccccc2)CO3)cc1 (stereo partly shown) [Hydrochloride of the compound 1] | 
1580 | O=C(O)c1ccc(CN2CC3(CC(N[C@@H]4C[C@H]4c4ccccc4)CO3)C2)cc1 (stereo partly shown) [Hydrochloride of the compound 2] | 
96.7 | O=C(O)c1cccc(CN2CCC3(CC2)CC(N[C@@H]2C[C@H]2c2ccccc2)CO3)c1 (stereo partly shown) [Hydrochloride of the compound 3] | 
940 | O=C(O)c1ccc(CN2CC3(CC(N[C@@H]4C[C@H]4c4ccccc4)CCO3)C2)cc1 (stereo partly shown) [Hydrochloride of the compound 4] | 
3850 | O=C(O)c1ccc(CN2CCC3(CC2)OCC3N[C@@H]2C[C@H]2c2ccccc2)cc1 (stereo partly shown) [Hydrochloride of the compound 5] | 
45.1 | O=C(O)c1ccccc1CN1CCC2(CC1)CC(N[C@@H]1C[C@H]1c1ccccc1)CO2 (stereo partly shown) [Hydrochloride of the compound 7] | 
39.7 | COc1ccc(CN2CCC3(CC2)CC(N[C@@H]2C[C@H]2c2ccccc2)CO3)cc1 (stereo partly shown) [Hydrochloride of the compound 8] | 
37.8 | Fc1ccc(CN2CCC3(CC2)CC(N[C@@H]2C[C@H]2c2ccccc2)CO3)cc1 (stereo partly shown) [Hydrochloride of the compound 9] | 
78.4 | FC(F)(F)c1ccc(CN2CCC3(CC2)CC(N[C@@H]2C[C@H]2c2ccccc2)CO3)cc1 (stereo partly shown) [Hydrochloride of the compound 10] | 
2880 | O=C(O)c1ccc(N2CCC3(CC2)CC(N[C@@H]2C[C@H]2c2ccccc2)CO3)cc1 (stereo partly shown) [Hydrochloride of the compound 11] | 
1380 | O=C(O)Cc1ccc(N2CCC3(CC2)CC(N[C@@H]2C[C@H]2c2ccccc2)CO3)cc1 (stereo partly shown) [Hydrochloride of the compound 12] | 
46.6 | Clc1ccc(CN2CCC3(CC2)CC(N[C@@H]2C[C@H]2c2ccccc2)CO3)cc1 (stereo partly shown) [Hydrochloride of the compound 13] | 
118 | O=C(O)c1ccc(CN2CCC3(CC2)CC(N[C@@H]2C[C@H]2c2ccccc2)CO3)nc1 (stereo partly shown) [Hydrochloride of the compound 14] | half-life [2]: 0.874 h; clearance [2]: 16.9 mL/min/kg; Vd [2]: 0.551 L/kg; Cmax [2]: 629 nM; AUC(0-t) [2]: 1.38 µM·h; bioavailability [2]: 28.7%
70.6 | O=C(O)c1ccc2cc(CN3CCC4(CC3)CC(N[C@@H]3C[C@H]3c3ccccc3)CO4)ccc2c1 (stereo partly shown) [Hydrochloride of the compound 17] | IC50 [3]: 2.86 nM; IC50 [4]: 0.78 nM; IC50 [5]: 0.65 nM
92.9 | O=C(O)c1cnc(CN2CCC3(CC2)CC(N[C@@H]2C[C@H]2c2ccccc2)CO3)cn1 (stereo partly shown) [Hydrochloride of the compound 18] | IC50 [3]: 16 nM; IC50 [4]: 20.4 nM
208 | O=C(O)c1ccc(CCN2CCC3(CC2)CC(N[C@@H]2C[C@H]2c2ccccc2)CO3)cc1 (stereo partly shown) [Hydrochloride of the compound 19] | IC50 [3]: 4.41 nM; IC50 [4]: 1.46 nM; IC50 [5]: 6.95 nM
908 | O=C(O)c1ccc(C(=O)N2CCC3(CC2)CC(N[C@@H]2C[C@H]2c2ccccc2)CO3)cc1 (stereo partly shown) [Hydrochloride of the compound 22] | 
64.6 | NC(=O)c1ccc(CN2CCC3(CC2)CC(N[C@@H]2C[C@H]2c2ccccc2)CO3)cc1 (stereo partly shown) [Hydrochloride of the compound 23] | half-life [2]: 4.32 h; clearance [2]: 68.7 mL/min/kg; Vd [2]: 18.6 L/kg; Cmax [2]: 144 nM; AUC(0-t) [2]: 0.36 µM·h; bioavailability [2]: 37.2%; IC50 [5]: 1.68 nM
41.5 | c1ccc([C@@H]2C[C@H]2NC2COC3(CCN(Cc4ccc(-c5nn[nH]n5)cc4)CC3)C2)cc1 (stereo partly shown) [Hydrochloride of the compound 24] | IC50 [3]: 38.3 nM; IC50 [4]: 39.1 nM
271 | O=C(O)c1ccc(CN2CCC3(CC2)CC(N[C@@H]2C[C@H]2c2ccccc2)CCO3)cc1 (stereo partly shown) [Hydrochloride of the compound 26] | 
1780 | O=C(O)[C@H]1CC[C@H](CN2CCC3(CC2)CC(N[C@@H]2C[C@H]2c2ccccc2)CO3)CC1 (stereo partly shown) [Hydrochloride of the compound 27] | 
1460 | O=C(O)C12CCC(CN3CCC4(CC3)CC(N[C@@H]3C[C@H]3c3ccccc3)CO4)(CC1)CC2 (stereo partly shown) [Hydrochloride of the compound 28] | 
1670 | O=C(O)C1CC(CN2CCC3(CC2)CC(N[C@@H]2C[C@H]2c2ccccc2)CO3)C1 (stereo partly shown) [Hydrochloride of the compound 29] | 
2120 | O=C(O)C1(CN2CCC3(CC2)CC(N[C@@H]2C[C@H]2c2ccccc2)CO3)CC1 (stereo partly shown) [Hydrochloride of the compound 31] | 
48.2 | c1ccc([C@@H]2C[C@H]2NC2COC3(CCN(CCc4nn[nH]n4)CC3)C2)cc1 (stereo partly shown) [Hydrochloride of the compound 33] | 

Compound | IC50 [1] [nM] | further results
O=C(O)c1ccc(OC(=O)N2CCC3(CC2)CC(N[C@@H]2C[C@H]2c2ccccc2)CO3)cc1 (stereo partly shown) [Hydrochloride of the compound 25] | 1720 | 
